Laboratory results published in PMC6804006, “Synthesis, Biological Activities and Docking Studies of Novel 4-(Arylaminomethyl)benzamide Derivatives as Potential Tyrosine Kinase Inhibitors” (Molecules, 2019).

Key:
[1] = system: K-562 (chronic myelogenous leukemia); test: MTT anti-proliferative assay, K-562; assay type: cell-based; settings: Homo sapiens, K562, 48 h, 50% growth inhibition
Experimental: (§1) Each in vitro experiment was performed at least in triplicate, and the standard deviation of absorbance was less than 10% of the mean. For the in vitro assays, a stock solution (1% DMSO in the appropriate buffer with the tested compound diluted under sonication) was prepared from which several dilutions were made with the appropriate buffer.
(§2) Human cell lines were obtained from the Institute of Cytology, Russian Academy of Sciences. […] Cellular sensitivities to clofarabine and its lipid derivatives were measured with the MTT assay. Cells were plated in triplicate in 96-well plates (10^5 cells/well for suspended cell cultures and 5 × 10^3 cells/well for monolayer cultures); on the same day (suspended cell cultures) or on the following day (monolayer cultures), compounds were added at the appropriate dilutions. Plates were incubated under standard conditions for 48 h. Thereafter, 10 μL of MTT (Sigma) in phosphate-buffered saline (5 mg/mL) was added. The plates were incubated for an additional 4 h, and 150 μL of dimethyl sulfoxide (DMSO) was added to dissolve the formazan crystals. The optical density was read on a HALO MPR-95 Microplate Reader (Dynamica Scientific Ltd., Australia) at 570 nm. The antiproliferative effects were determined as degrees of inhibition of tumor cells (%).

[2] = system: HL-60 (promyelocytic leukemia); test: MTT anti-proliferative assay, HL-60; assay type: cell-based, human; settings: Homo sapiens, HL-60, 48 h, 50% growth inhibition
Experimental: as §1, §2

[3] = system: MCF-7 (breast adenocarcinoma); test: MTT anti-proliferative assay, MCF-7; assay type: cell-based; settings: Homo sapiens, MCF7, 48 h, 50% growth inhibition
Experimental: as §1, §2

[4] = system: HeLa (cervix carcinoma); test: MTT anti-proliferative assay, HeLa; assay type: cell-based; settings: Homo sapiens, 48 h, 50% growth inhibition
Experimental: as §1, §2

[5] = system: A549 (lung carcinoma); test: MTT anti-proliferative assay, A-549; assay type: cell-based; settings: Homo sapiens, 48 h, 50% growth inhibition
Experimental: as §1, §2

[6] = system: OKP-GS (carcinoma of the kidney); test: MTT anti-proliferative assay, OKP-GS; assay type: cell-based; settings: Homo sapiens, 48 h, 50% growth inhibition
Experimental: as §1, §2

[7] = system: RPMI 1788 (B lymphocyte, human normal cells); test: MTT assay on normal cells RPMI 1788; assay type: cell-based; settings: MTT 48 h
Experimental: as §1
Human cell lines were obtained from the Institute of Cytology, Russian Academy of Sciences. The cell lines studied were maintained in RPMI 1640 medium (AppliChem, Darmstadt, Germany) supplemented with 20% (HL-60, RPMI 1788) fetal calf serum (HyClone, Cramlington, UK), in DMEM (A 549) and Eagle’s MEM (AppliChem) (MCF7, HeLa) with 10% fetal calf serum (HyClone). Cells were cultivated at 37 °C in a humidified atmosphere of 5% CO2. Cellular sensitivities to clofarabine and its lipid derivatives were measured with the MTT assay. Cells were plated in triplicate in 96-well plates (10^5 cells/well for suspended cell cultures and 5 × 10^3 cells/well for monolayer cultures); on the same day (suspended cell cultures) or on the following day (monolayer cultures), compounds were added at the appropriate dilutions. Plates were incubated under standard conditions for 48 h. Thereafter, 10 μL of MTT (Sigma) in phosphate-buffered saline (5 mg/mL) was added. The plates were incubated for an additional 4 h, and 150 μL of dimethyl sulfoxide (DMSO) was added to dissolve the formazan crystals. The optical density was read on a HALO MPR-95 Microplate Reader (Dynamica Scientific Ltd., Australia) at 570 nm. The antiproliferative effects were determined as degrees of inhibition of tumor cells (%).

[8] = target: T1, EGFR (Homo sapiens, UniProt P00533); test: ADP-Glo kinase inhibitory assay, EGFR; assay type: biochemical; settings: read-out: % Inhibition at 10 nM, EGFR
T1 construct: purchased Promega
Experimental: (§3) We investigated the kinase selectivity of targeted compounds against eight receptor tyrosine kinases including EGFR (epidermal growth factor receptor), HER-2 and HER4 (human epidermal growth factor receptor), IGF1R (insulin like growth factor 1 receptor), InsR (gene insulin receptor), KDR (kinase insert domain receptor), and PDGFRa and PDGFRb (platelet-derived growth factor receptors). The assay was performed using the Kinase-Glo Plus luminescence kinase assay kit (TK-1+ADP-Glo™, Promega, San Diego, CA, USA). It measures kinase activity by quantitating the amount of ATP remaining in solution following a kinase reaction.
(§4) The assay was performed using a Kinase Selectivity Profiling System (TK-1+ADP-Glo™ Assay and TK-2+ADP-Glo™ Assay, Promega), where the kinase activity was measured by quantifying the amount of ADP produced during a kinase reaction. The assay is performed in two steps; firstly, after the kinase reaction, an equal volume of ADP-Glo™ Reagent is added to terminate the kinase reaction and deplete the remaining ATP. Secondly, the Kinase Detection Reagent is added to simultaneously convert ADP to ATP and allow the newly synthesized ATP to be measured using a luciferase/luciferin reaction. The luminescent signal generated is proportional to the ADP concentration produced and is correlated with kinase activity. Our compounds were diluted with kinase buffer (5% DMSO), and 1 μL of the dilution was added to a 5-μL reaction so that the final concentration of DMSO was 1% in all of reactions. All of the enzymatic reactions were conducted at 23 °C for 60 min. The 5-μL reaction mixture contained 1µL of the compound solution, 2µL of the enzyme solution, and 2 µL of kinase substrate. After the enzymatic reaction, 5 µL of ADP-Glo™ Reagent (Promega, USA) was added to each reaction, and the plate was incubated for 40 min at 23 °C. Then, 10 µL of Kinase Detection Reagent (Promega, USA) was added to each reaction, and the plate was incubated for 30 min at 23 °C. Luminescence signal was measured using an Infinite M 200 plate reader (Tecan, Switzerland).
(§5) Kinase activity assays were performed in duplicate at each concentration. The luminescence data were analyzed using the computer software, Magellan™. The difference between luminescence intensities in the absence of Kinase (Lut) and in the presence of Kinase (Luc) was defined as 100% activity (Lut − Luc).

[9] = target: T2, HER-2 (Homo sapiens, UniProt P04626); test: ADP-Glo kinase inhibitory assay, HER-2; assay type: biochemical; settings: read-out: % Inhibition at 10 nM, HER-2
T2 construct: purchased Promega
Experimental: as §3, §4, §5

[10] = target: T3, HER-4 (Homo sapiens, UniProt Q15303); test: ADP-Glo kinase inhibitory assay, HER-4; assay type: biochemical; settings: for inhibition at 0.01 µM: read-out: % Inhibition at 10 nM, HER-4; for inhibitory activity in relation to HER-4, in words: 10 nM, compared with imatinib
T3 construct: purchased Promega
Experimental: as §3, §4, §5

[11] = target: T4, IGF1R (Homo sapiens, UniProt P08069); test: ADP-Glo kinase inhibitory assay, IGF1R; assay type: biochemical; settings: read-out: % Inhibition at 10 nM, IGF1R
T4 construct: purchased Promega
Experimental: as §3, §4, §5

[12] = target: T5, InsR (Homo sapiens, UniProt P06213); test: ADP-Glo kinase inhibitory assay, InsR; assay type: biochemical; settings: for inhibition at 0.01 µM: read-out: % Inhibition at 10 nM, InsR
T5 construct: purchased Promega
Experimental: as §3, §4, §5

[13] = target: T6, KDR (VEGFR2) (Homo sapiens, UniProt P35968); test: ADP-Glo kinase inhibitory assay, KDR; assay type: biochemical; settings: 10 nM
T6 construct: purchased Promega
Experimental: as §3
Vascular endothelial growth factor receptor 2 (VEGFR2), also called kinase insert domain receptor (KDR), is a tyrosine kinase receptor for VEGFs that plays a central role in tumor angiogenesis; therefore, the inhibition of VEGFR2 is a promising therapeutic strategy for inhibiting angiogenesis and tumor growth.
as §4, §5

[14] = target: T7, PDGFRa (Homo sapiens, UniProt P16234); test: ADP-Glo kinase inhibitory assay, PDGFRa; assay type: biochemical; settings: read-out: % Inhibition at 10 nM, PDGFRa
T7 construct: purchased Promega
Experimental: as §3, §4, §5

[15] = target: T8, PDGFRb (Homo sapiens, UniProt P09619); test: ADP-Glo kinase inhibitory assay, PDGFRb; assay type: biochemical; settings: read-out: % Inhibition at 10 nM, PDGFRb
T8 construct: purchased Promega
Experimental: as §3, §4, §5

T1 sequence (P00533 25-1210): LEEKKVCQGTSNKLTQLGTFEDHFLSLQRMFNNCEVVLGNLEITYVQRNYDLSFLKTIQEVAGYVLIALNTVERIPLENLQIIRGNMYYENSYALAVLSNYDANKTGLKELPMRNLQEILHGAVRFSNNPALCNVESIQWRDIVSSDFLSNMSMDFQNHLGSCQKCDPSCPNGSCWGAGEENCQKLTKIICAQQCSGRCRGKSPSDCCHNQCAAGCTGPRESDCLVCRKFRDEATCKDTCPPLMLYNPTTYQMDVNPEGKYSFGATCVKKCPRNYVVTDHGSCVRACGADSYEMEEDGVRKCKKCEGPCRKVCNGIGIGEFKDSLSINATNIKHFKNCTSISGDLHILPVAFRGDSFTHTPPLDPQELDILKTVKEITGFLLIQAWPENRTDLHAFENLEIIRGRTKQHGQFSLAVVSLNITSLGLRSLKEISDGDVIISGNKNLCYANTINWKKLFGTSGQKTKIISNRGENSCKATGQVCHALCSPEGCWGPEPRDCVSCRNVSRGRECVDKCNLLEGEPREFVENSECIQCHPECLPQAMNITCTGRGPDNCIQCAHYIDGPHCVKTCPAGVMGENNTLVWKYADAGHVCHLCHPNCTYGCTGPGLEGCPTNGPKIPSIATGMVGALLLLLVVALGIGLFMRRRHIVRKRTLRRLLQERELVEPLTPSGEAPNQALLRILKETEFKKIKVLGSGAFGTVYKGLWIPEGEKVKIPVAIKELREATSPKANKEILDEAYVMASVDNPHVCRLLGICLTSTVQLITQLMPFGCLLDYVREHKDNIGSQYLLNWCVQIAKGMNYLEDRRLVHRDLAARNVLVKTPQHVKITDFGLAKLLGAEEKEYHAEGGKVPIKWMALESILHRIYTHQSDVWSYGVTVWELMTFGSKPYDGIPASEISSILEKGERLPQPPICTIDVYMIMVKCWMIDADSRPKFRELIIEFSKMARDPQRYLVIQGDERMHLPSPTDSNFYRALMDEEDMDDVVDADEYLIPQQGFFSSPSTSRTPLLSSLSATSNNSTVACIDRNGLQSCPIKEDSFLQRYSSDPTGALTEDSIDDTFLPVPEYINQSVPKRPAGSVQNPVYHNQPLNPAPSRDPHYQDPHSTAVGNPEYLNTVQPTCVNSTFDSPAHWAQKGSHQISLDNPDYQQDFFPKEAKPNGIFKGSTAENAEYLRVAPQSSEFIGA
T5 sequence (P06213 28-1382): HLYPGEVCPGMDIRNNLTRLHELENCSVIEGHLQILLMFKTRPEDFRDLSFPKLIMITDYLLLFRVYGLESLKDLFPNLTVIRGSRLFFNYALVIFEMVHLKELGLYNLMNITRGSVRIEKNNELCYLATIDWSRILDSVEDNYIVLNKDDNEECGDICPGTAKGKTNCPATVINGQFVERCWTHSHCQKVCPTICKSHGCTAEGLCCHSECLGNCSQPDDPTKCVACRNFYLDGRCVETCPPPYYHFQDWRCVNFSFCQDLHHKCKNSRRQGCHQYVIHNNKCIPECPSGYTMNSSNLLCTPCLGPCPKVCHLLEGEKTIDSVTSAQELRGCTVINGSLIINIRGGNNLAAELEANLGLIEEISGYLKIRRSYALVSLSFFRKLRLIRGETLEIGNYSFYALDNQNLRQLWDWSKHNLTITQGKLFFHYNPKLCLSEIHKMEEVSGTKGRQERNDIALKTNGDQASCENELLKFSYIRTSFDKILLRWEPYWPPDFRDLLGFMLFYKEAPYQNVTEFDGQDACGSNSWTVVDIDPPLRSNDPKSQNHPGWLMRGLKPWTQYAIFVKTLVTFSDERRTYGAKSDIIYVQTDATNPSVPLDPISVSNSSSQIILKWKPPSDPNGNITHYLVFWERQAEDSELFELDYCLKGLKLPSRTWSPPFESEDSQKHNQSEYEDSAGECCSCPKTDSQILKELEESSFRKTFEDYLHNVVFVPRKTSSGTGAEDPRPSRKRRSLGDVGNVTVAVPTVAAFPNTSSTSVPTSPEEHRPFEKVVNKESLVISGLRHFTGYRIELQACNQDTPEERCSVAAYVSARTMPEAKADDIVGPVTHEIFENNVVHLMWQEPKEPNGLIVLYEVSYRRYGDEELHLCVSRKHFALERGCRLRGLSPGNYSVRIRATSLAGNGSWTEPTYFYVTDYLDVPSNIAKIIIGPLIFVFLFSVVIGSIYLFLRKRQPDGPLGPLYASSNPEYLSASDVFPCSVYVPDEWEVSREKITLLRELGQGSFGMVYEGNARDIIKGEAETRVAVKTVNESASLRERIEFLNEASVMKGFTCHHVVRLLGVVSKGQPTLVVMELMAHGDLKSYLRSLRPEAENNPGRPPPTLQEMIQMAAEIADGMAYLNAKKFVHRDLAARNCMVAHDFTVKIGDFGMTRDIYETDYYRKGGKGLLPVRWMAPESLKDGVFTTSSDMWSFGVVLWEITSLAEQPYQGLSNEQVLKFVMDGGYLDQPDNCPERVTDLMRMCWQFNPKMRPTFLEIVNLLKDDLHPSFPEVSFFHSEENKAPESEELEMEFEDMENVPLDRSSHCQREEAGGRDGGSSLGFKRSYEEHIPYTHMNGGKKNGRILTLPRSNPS
T3 sequence (Q15303 26-1308): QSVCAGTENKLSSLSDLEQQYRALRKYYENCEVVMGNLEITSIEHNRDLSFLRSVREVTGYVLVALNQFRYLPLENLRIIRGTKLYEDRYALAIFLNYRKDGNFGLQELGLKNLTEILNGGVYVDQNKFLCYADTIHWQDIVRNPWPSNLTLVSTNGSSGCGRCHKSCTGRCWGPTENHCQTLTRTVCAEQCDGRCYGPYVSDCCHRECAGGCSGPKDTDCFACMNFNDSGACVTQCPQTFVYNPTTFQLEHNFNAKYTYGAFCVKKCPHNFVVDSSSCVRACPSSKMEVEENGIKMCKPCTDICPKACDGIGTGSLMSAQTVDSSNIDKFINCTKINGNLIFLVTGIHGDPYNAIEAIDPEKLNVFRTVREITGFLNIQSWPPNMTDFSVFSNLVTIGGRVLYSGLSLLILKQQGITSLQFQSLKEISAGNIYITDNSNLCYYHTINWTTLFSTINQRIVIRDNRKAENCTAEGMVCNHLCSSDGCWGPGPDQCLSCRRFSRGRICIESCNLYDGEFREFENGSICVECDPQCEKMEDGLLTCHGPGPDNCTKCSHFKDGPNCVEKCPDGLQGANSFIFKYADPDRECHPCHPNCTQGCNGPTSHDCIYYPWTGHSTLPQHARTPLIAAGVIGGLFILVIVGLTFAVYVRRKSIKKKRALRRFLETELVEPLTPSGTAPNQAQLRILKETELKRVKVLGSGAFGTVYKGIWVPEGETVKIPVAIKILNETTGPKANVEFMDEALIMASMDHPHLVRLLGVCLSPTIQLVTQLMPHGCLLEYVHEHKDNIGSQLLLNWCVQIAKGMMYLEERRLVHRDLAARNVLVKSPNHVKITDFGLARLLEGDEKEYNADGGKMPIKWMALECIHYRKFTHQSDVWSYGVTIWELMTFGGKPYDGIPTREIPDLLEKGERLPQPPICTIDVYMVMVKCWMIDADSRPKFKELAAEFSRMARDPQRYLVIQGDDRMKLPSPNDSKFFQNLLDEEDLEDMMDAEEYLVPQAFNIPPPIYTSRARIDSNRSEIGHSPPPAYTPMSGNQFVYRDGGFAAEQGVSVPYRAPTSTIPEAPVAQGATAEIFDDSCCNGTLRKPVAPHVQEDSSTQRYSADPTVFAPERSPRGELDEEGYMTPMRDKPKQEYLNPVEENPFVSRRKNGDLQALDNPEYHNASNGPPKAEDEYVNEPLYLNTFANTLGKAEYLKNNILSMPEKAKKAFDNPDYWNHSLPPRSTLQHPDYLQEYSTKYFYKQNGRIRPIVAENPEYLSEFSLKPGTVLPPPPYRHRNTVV
T8 sequence (P09619 33-1106): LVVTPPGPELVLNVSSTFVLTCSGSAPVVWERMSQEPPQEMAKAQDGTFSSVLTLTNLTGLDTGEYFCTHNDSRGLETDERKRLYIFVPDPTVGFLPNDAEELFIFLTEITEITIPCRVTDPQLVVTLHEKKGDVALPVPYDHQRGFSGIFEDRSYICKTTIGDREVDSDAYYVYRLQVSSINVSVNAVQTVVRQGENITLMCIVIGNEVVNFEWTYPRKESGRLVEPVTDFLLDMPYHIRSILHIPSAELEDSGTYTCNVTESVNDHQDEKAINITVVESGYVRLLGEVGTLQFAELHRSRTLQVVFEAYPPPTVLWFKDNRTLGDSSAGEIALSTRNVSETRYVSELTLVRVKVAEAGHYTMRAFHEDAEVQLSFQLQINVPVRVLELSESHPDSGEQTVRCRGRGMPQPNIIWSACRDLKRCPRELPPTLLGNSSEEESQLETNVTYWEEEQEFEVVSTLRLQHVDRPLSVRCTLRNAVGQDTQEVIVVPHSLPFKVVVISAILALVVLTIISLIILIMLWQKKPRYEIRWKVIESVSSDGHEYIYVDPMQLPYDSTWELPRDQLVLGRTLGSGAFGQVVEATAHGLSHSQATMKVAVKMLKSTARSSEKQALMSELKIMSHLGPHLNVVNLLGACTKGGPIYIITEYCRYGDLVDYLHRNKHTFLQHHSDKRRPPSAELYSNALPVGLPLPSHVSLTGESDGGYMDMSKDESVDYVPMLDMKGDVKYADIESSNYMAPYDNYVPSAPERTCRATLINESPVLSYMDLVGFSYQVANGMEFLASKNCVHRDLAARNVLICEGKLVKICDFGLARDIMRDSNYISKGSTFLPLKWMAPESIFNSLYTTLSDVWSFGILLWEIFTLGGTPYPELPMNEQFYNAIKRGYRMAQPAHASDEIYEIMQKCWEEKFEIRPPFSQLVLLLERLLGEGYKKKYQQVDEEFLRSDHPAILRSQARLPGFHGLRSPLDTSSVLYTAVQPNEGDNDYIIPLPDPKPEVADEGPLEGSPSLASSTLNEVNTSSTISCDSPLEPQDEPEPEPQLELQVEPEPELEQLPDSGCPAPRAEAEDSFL

Row | Compound | IC50 [1] | IC50 [2] | IC50 [3] | IC50 [4] | IC50 [5] | IC50 [6] | inhibition at 100 µM [7] | inhibition at 0.01 µM [8] | inhibition at 0.01 µM [9] | inhibition at 0.01 µM [10] | inhibition at 0.01 µM [11] | selectivity for the gene insulin receptor, in words ([12]; 10 nM, panel of eight receptor tyrosine kinases) | inhibition at 0.01 µM [12] | inhibition at 0.01 µM [13] | inhibition at 0.01 µM [14] | inhibition at 0.01 µM [15] | melting point | inhibitory activity in relation to HER-4, in words [10]
1 | Cc1cn(-c2cc(NC(=O)c3ccc(CCl)cc3)cc(C(F)(F)F)c2)cn1 [Compound 5, 4-(Chloromethyl)-N-(3-(4-methyl-1H-imidazol-1-yl)-5-(trifluoromethyl)phenyl)benzamide] | 69 µM | 45 µM | 54 µM | 51.8 µM | 53.5 µM | 70 µM | < 0.1% | 0% | 0% | 0% | 0% | high selectivity | 57% | 0% | 0% | 0% |  | 
2 | Cc1cn(-c2cc(NCc3ccc(C(=O)Nc4cc(-n5cnc(C)c5)cc(C(F)(F)F)c4)cc3)cc(C(F)(F)F)c2)cn1 [Compound 8, N-(3-(4-methyl-1H-imidazol-1-yl)-5-(trifluoromethyl)phenyl)-4-(((3-(4-methyl-1H-imidazol-1-yl)-5-(trifluoromethyl)phenyl)amino)methyl)benzamide] |  |  | 9.5 µM | 87 µM | 85 µM | > 100 µM | 19.3% |  |  |  |  |  |  |  |  |  | 200 to 202 °C | 
3 | CNC(=O)c1cc(Oc2ccc(NCc3ccc(C(=O)Nc4cc(-n5cnc(C)c5)cc(C(F)(F)F)c4)cc3)cc2)ccn1 [Compound 10, N-methyl-4-(4-((4-((3-(4-methyl-1H-imidazol-1-yl)-5-(trifluoromethyl)phenyl)carbamoyl)benzyl)amino)phenoxy)picolinamide] | 40 µM | 8.2 µM | > 100 µM | > 100 µM | > 100 µM | 81 µM | 10.4% | 65% | 0% | 51% | 0% |  | 46% | 27% | 66% | 0% | 153 to 156 °C | comparable to imatinib
4 | Cc1cn(-c2cc(NC(=O)c3ccc(CNc4cccc(C(F)(F)F)c4)cc3)cc(C(F)(F)F)c2)cn1 [Compound 11, N-(3-(4-methyl-1H-imidazol-1-yl)-5-(trifluoromethyl)phenyl)-4-(((3-(trifluoromethyl)phenyl)amino)methyl)benzamide] | 53 µM | 51 µM | 57 µM | 54 µM | 61 µM | 54.3 µM | 15.5% | 91% | 0% | 49% | 0% |  | 0% | 16% | 55% | 0% | 83 to 85 °C | comparable to imatinib
5 | Cc1cn(-c2cc(NC(=O)c3ccc(CN4CCN(C(=O)c5cccnc5)CC4)cc3)cc(C(F)(F)F)c2)cn1 [Compound 28l] | 4.5 µM | 53.5 µM | 77 µM | > 100 µM | > 100 µM | > 100 µM |  | 0% | 0% | 51% | 0% |  | 0% | 17% | 0% | 7% | 96 to 100 °C | comparable to imatinib
